The values below are quoted from earlier work in patent publication US20060099251A1, “Formulations of finasteride” (priority 2002, published 2006).

SMILES strings stand for the structures.

As for `CC(C)(C)NC(=O)[C@H]1CCC2[C@@H]3CCC4NC(=O)C=C[C@]4(C)C3CC[C@@]21C` (stereo partly drawn) [Finasteride, 17β-(N-tert-butylcarbamoyl)-4-aza-5α-androst-1-en-3-one], the solubility in water result was “practically insoluble”.
